Assay results as given in patent US20080009418A1, “Selective Inhibitors” (Alchemia LTD., priority 2004, published 2008).

Columns and labels:
[1] = target: T1, Human δ-opioid (DOP) (Homo sapiens, UniProt P41143); assay: Radioligand binding, human δ-opioid (DOP) membranes, FlashPlate, [3H]-Bremazocine; details: compound at 10 μM; for A1 radioligand binding inhibition: human δ-opioid (DOP) membranes
T1 construct: purchased Perkin Elmer Biosignal
Method in brief: (§1)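 Cloned human receptor membranes were coated onto FlashPlate wells and incubated with radioligand and compound (added from a 0.5 mM DMSO daughter plate) for 1 hour at room temperature in the dark. Scintillation counting gave percent inhibition, with DMSO defining total and reference ligand defining non-specific binding.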

[2] = target: T2, Human κ-Opioid (KOP) (Homo sapiens, UniProt P41145); assay: Radioligand binding, human κ-opioid (KOP) membranes, filtration, [3H]-Diprenorphine; details: compound at 10 μM; for A2 radioligand binding inhibition: human κ-opioid (KOP) membranes
T2 construct: purchased Perkin Elmer Biosignal
T2 sequence (P41145 whole entry): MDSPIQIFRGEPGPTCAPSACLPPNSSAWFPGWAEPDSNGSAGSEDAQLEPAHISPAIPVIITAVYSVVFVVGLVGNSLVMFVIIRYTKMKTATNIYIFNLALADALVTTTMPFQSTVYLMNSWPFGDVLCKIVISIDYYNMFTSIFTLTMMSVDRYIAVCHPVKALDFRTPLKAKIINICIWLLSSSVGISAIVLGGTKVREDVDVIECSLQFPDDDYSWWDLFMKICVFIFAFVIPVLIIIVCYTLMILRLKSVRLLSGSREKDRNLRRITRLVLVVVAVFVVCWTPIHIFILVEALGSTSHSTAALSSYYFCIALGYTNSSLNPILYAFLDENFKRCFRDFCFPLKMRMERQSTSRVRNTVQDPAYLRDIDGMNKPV
Method in brief: (§2)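 Percent inhibition of radioligand binding measured on recombinant human membranes: NK1 with [125I]-Substance P, KOP with [3H]-Diprenorphine. Incubation 1 h at room temperature, then harvest onto 0.3% PEI-soaked filters, cold Tris-HCl pH 7.4 washes and scintillation counting; non-specific binding from reference ligand wells.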

[3] = target: T3, Human Melanocortin (MC3) (Homo sapiens, UniProt P41968); assay: Radioligand binding, human melanocortin MC3 membranes, FlashPlate, [125I]-NDP-αMSH; details: compound at 10 μM; for A3 radioligand binding inhibition: human melanocortin MC3 membranes
T3 construct: purchased Perkin Elmer Biosignal
T3 sequence (P41968 whole entry): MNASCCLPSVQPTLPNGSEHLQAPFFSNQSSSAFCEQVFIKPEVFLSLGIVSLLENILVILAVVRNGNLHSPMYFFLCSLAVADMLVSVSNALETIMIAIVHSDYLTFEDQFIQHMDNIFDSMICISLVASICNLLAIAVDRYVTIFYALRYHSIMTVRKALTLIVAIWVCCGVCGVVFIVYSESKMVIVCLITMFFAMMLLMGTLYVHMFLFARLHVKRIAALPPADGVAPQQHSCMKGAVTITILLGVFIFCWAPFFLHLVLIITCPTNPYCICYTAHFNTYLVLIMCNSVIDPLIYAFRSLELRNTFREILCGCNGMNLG
Method in brief: as §1

[4] = target: T4, Human Melanocortin (MC4) (Homo sapiens, UniProt P32245); assay: Radioligand binding, human melanocortin MC4 membranes, FlashPlate, [125I]-NDP-αMSH; details: compound at 10 μM; for A4 radioligand binding inhibition: human melanocortin MC4 membranes
T4 construct: purchased Perkin Elmer Biosignal
T4 sequence (P32245 whole entry): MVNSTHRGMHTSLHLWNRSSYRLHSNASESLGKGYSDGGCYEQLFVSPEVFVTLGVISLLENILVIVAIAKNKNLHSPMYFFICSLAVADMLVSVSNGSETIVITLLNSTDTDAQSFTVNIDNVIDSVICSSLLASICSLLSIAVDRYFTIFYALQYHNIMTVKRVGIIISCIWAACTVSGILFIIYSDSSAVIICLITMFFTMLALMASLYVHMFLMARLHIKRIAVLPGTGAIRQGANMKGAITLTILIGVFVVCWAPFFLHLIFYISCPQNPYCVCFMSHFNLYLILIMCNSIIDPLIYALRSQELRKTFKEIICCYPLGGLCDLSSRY
Method in brief: as §1

[5] = target: T5, Human melanocortin (MC5) (Homo sapiens, UniProt P33032); assay: Radioligand binding, human melanocortin MC5 membranes, FlashPlate, [125I]-NDP-αMSH; details: compound at 10 μM; for A5 radioligand binding inhibition: human melanocortin MC5 membranes
T5 construct: purchased Perkin Elmer Biosignal
T5 sequence (P33032 whole entry): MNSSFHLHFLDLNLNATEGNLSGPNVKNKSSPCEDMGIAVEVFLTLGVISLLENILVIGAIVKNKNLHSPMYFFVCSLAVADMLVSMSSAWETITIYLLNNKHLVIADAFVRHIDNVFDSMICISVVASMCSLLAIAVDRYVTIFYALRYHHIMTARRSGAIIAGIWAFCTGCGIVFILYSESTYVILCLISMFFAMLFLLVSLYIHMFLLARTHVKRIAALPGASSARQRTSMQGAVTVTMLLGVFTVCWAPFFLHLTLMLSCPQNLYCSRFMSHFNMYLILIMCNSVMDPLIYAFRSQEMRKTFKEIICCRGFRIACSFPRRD
Method in brief: as §1

[6] = target: T6, Human melanin-concentrating hormone (MCH1) (Homo sapiens, UniProt Q99705); assay: Radioligand binding, human melanin-concentrating hormone MCH1 membranes, FlashPlate, [125I]-S36057; details: compound at 10 μM; for A6 radioligand binding inhibition: human MCH1 membranes
T6 construct: purchased Perkin Elmer Biosignal
T6 sequence (Q99705 whole entry): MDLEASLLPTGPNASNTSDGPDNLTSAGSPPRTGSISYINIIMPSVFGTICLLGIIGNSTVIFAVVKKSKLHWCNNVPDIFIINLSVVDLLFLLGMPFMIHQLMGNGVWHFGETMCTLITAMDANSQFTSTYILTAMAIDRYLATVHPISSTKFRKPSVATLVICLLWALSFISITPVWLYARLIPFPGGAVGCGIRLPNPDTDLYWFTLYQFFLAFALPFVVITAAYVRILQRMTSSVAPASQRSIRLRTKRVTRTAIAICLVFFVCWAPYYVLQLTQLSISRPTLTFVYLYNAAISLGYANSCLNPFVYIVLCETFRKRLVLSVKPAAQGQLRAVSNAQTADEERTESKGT
Method in brief: as §1

[7] = target: T7, Human μ-opioid (MOP) (Homo sapiens, UniProt P35372); assay: Radioligand binding, human μ-opioid (MOP) membranes, FlashPlate, [3H]-Naloxone; details: compound at 10 μM; for A7 radioligand binding inhibition: human μ-opioid (MOP) membranes
T7 construct: purchased Perkin Elmer Biosignal
T7 sequence (P35372 whole entry): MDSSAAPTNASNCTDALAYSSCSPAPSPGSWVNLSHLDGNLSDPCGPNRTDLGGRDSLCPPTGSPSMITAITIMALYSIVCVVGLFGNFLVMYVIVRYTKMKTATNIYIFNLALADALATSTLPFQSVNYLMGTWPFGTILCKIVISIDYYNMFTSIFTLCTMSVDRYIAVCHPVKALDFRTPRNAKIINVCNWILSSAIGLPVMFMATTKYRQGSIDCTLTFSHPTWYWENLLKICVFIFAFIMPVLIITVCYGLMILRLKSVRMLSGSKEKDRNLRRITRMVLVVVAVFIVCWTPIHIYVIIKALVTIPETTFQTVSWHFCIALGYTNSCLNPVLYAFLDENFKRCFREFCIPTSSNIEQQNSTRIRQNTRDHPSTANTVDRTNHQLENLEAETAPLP
Method in brief: as §1

[8] = target: T8, Human neurokinin (NK1) (Homo sapiens, UniProt P25103); assay: Radioligand binding, human neurokinin NK1 membranes, filtration, [125I]-Substance P; details: compound at 10 μM; for A8 radioligand binding inhibition: human neurokinin NK1 membranes
T8 construct: purchased Perkin Elmer Biosignal
T8 sequence (P25103 whole entry): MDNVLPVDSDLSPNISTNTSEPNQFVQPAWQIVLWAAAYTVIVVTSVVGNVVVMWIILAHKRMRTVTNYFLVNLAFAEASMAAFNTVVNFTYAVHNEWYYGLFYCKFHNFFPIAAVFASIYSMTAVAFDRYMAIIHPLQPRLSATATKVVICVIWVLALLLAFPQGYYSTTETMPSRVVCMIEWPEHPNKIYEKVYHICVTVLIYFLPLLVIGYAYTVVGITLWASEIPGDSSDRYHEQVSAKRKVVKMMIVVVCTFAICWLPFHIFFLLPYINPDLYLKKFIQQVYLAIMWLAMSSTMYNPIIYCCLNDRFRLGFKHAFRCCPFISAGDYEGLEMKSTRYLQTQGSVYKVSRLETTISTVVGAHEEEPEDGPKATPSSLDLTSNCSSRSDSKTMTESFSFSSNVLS
Method in brief: as §2

[9] = target: T9, Human neuropeptide Y (NPY-Y1) (Homo sapiens, UniProt P25929); assay: Radioligand binding, human neuropeptide Y NPY-Y1 membranes, FlashPlate, [125I]-PYY; details: compound at 10 μM; for A9 radioligand binding inhibition: human NPY-Y1 membranes
T9 construct: purchased Perkin Elmer Biosignal
T9 sequence (P25929 1-384): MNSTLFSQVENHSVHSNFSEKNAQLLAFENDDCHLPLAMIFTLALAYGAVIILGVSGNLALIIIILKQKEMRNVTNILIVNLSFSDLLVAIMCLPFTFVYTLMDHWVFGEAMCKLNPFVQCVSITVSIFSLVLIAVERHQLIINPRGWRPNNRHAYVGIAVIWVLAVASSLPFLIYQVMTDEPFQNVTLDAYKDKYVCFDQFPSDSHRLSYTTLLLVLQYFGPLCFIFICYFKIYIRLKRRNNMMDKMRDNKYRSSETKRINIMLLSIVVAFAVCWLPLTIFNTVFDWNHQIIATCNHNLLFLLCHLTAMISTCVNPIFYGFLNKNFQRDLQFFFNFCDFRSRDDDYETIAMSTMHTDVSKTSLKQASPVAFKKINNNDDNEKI
Method in brief: as §1

[10] = target: T10, Human opioid (ORL1) (Homo sapiens, UniProt P41146); assay: Radioligand binding, human opioid ORL1 membranes, FlashPlate, [125I]-Nociceptin; details: compound at 10 μM; for A10 radioligand binding inhibition: human ORL1 membranes
T10 construct: purchased Perkin Elmer Biosignal
T10 sequence (P41146 whole entry): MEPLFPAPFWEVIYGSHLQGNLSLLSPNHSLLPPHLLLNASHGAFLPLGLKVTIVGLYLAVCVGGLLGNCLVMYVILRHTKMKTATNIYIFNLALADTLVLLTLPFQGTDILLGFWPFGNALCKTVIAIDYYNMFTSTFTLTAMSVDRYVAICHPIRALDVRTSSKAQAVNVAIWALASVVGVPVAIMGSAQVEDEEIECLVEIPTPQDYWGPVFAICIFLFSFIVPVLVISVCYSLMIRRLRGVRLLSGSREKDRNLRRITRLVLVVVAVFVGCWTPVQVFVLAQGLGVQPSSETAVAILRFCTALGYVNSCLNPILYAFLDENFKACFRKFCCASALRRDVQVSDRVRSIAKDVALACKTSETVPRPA
Method in brief: as §1

[11] = target: T11, Mouse urotensin (mUR2) (Mus musculus, UniProt Q8VIH9); assay: Radioligand binding, mouse urotensin mUR2 membranes, FlashPlate, [125I]-Urotensin II; details: compound at 10 μM; for A11 radioligand binding inhibition: mouse urotensin mUR2 membranes
T11 construct: purchased Perkin Elmer Biosignal
T11 sequence (Q8VIH9 1-385): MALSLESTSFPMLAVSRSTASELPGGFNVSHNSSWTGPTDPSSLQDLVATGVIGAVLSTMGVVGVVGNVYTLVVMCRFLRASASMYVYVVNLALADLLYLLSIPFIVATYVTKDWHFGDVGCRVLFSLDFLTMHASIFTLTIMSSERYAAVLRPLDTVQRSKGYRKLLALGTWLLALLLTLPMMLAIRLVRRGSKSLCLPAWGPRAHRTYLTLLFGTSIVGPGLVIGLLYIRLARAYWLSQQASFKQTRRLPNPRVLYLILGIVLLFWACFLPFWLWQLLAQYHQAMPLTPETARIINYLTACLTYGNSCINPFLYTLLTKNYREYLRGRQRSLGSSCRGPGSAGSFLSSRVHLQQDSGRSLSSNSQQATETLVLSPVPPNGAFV
Method in brief: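 Cloned mouse urotensin (mUR2) receptor membranes from Perkin Elmer Biosignal were immobilized in FlashPlate microplates using a proprietary coating. Each well got 19.5 μl buffer, then 0.5 μl of DMSO, reference ligand, or compound. Adding 5 μl of [125I]-Urotensin II, diluted to 5× final concentration in binding buffer, started binding. Plates were sealed with TopSeal-A and incubated 1 hour at room temperature in the dark. Wells were counted for 30 seconds each on a TopCount after a 60-second delay, and percentage inhibition was calculated.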

T1 sequence (P41143 whole entry): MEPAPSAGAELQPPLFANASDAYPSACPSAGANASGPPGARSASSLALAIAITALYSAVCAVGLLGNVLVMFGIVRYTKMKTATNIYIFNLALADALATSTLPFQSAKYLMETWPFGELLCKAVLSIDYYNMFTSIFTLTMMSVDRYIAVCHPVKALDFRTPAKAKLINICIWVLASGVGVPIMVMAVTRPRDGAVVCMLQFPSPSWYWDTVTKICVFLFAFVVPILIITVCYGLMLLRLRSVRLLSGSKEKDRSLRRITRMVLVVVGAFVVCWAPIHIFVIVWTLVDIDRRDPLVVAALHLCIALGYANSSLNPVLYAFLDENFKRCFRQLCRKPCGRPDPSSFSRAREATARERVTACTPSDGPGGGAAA

Row | SMILES | A1 radioligand binding inhibition [1] | A2 radioligand binding inhibition [2] | A3 radioligand binding inhibition [3] | A4 radioligand binding inhibition [4] | A5 radioligand binding inhibition [5] | A6 radioligand binding inhibition [6] | A7 radioligand binding inhibition [7] | A8 radioligand binding inhibition [8] | A9 radioligand binding inhibition [9] | A10 radioligand binding inhibition [10] | A11 radioligand binding inhibition [11] | A4: inhibition of radioligand binding, human melanocortin (MC4) ([4]; [125I]-NDP-αMSH) | A5: inhibition of radioligand binding, human melanocortin (MC5) ([5]; [125I]-NDP-αMSH) | A6: inhibition of radioligand binding, human melanin-concentrating hormone (MCH1) ([6]; [125I]-S36057) | A8: inhibition of radioligand binding, human neurokinin (NK1) ([8]; [125I]-Substance P) | A9: inhibition of radioligand binding, human neuropeptide Y (NPY-Y1) ([9]; [125I]-PYY) | A10: inhibition of radioligand binding, human opioid (ORL1) ([10]; [125I]-Nociceptin) | A11: inhibition of radioligand binding, mouse urotensin (mUR2) ([11]; [125I]-Urotensin II) | also measured
1 | CO[C@H]1[C@H](O)[C@@H](COCc2ccc3ccccc3c2)OC(OCc2ccccc2)[C@@H]1NC(=O)CCCN (stereo partly shown) [compound 88] | − (“−” indicates less than 50% inhibition at 10 μM) | − (“−” indicates less than 50% inhibition at 10 μM) | − (“−” indicates less than 50% inhibition at 10 μM) | − (“−” indicates less than 50% inhibition at 10 μM) | − (“−” indicates less than 50% inhibition at 10 μM) | − (“−” indicates less than 50% inhibition at 10 μM) | − (“−” indicates less than 50% inhibition at 10 μM) | + (“+” indicates greater than 50% inhibition at 10 μM) | − (“−” indicates less than 50% inhibition at 10 μM) | − (“−” indicates less than 50% inhibition at 10 μM) | − (“−” indicates less than 50% inhibition at 10 μM) |  |  |  |  |  |  |  | 
2 | CO[C@H]1[C@H](O)[C@@H](COCc2ccc3ccccc3c2)OC(OCc2ccc3ccccc3c2)[C@@H]1NC(=O)CCCNC(=N)N (stereo partly shown) [compound 73] | − (“−” indicates less than 50% inhibition at 10 μM) | + (“+” indicates greater than 50% inhibition at 10 μM) | − (“−” indicates less than 50% inhibition at 10 μM) | − (“−” indicates less than 50% inhibition at 10 μM) | + (“+” indicates greater than 50% inhibition at 10 μM) | − (“−” indicates less than 50% inhibition at 10 μM) | + (“+” indicates greater than 50% inhibition at 10 μM) | + (“+” indicates greater than 50% inhibition at 10 μM) | − (“−” indicates less than 50% inhibition at 10 μM) | + (“+” indicates greater than 50% inhibition at 10 μM) | − (“−” indicates less than 50% inhibition at 10 μM) |  |  |  |  |  |  |  | 
3 | COC[C@H]1OC(OCc2ccc3ccccc3c2)[C@H](NC(=O)CCCNC(=N)N)[C@@H](OCc2ccc3ccccc3c2)[C@@H]1O (stereo partly shown) [compound 339] |  |  |  |  |  |  |  |  |  |  |  | + (“+” indicates greater than 50% inhibition at 10 μM) | + (“+” indicates greater than 50% inhibition at 10 μM) | + (“+” indicates greater than 50% inhibition at 10 μM) | + (“+” indicates greater than 50% inhibition at 10 μM) | − (“−” indicates less than 50% inhibition at 10 μM) | − (“−” indicates less than 50% inhibition at 10 μM) | − (“−” indicates less than 50% inhibition at 10 μM) | A1: inhibition of radioligand binding, human δ-opioid (DOP) ([1]; [3H]-Bremazocine): − (“−” indicates less than 50% inhibition at 10 μM); A2: inhibition of radioligand binding, human κ-opioid (KOP) ([2]; [3H]-Diprenorphine): − (“−” indicates less than 50% inhibition at 10 μM); A3: inhibition of radioligand binding, human melanocortin (MC3) ([3]; [125I]-NDP-αMSH): − (“−” indicates less than 50% inhibition at 10 μM); A7: inhibition of radioligand binding, human μ-opioid (MOP) ([7]; [3H]-Naloxone): + (“+” indicates greater than 50% inhibition at 10 μM)
4 | CO[C@H]1[C@H](O)[C@@H](COCc2ccc(Cl)cc2)OC(OCc2ccccc2)[C@@H]1NC(=O)CCCN (stereo partly shown) [compound 92] |  |  |  |  |  |  |  |  |  |  |  |  |  |  |  |  |  |  | A1 radioligand binding, percentage inhibition ([1]; [3H]-Bremazocine): − (“−” indicates less than 50% inhibition at 10 μM); A2 radioligand binding, percentage inhibition ([2]; [3H]-Diprenorphine): − (“−” indicates less than 50% inhibition at 10 μM); A3 radioligand binding, percentage inhibition ([3]; [125I]-NDP-αMSH): − (“−” indicates less than 50% inhibition at 10 μM); A4 radioligand binding, percentage inhibition ([4]; [125I]-NDP-αMSH): − (“−” indicates less than 50% inhibition at 10 μM); A5 radioligand binding, percentage inhibition ([5]; [125I]-NDP-αMSH): − (“−” indicates less than 50% inhibition at 10 μM); A6 radioligand binding, percentage inhibition ([6]; [125I]-S36057): − (“−” indicates less than 50% inhibition at 10 μM); A7 radioligand binding, percentage inhibition ([7]; [3H]-Naloxone): − (“−” indicates less than 50% inhibition at 10 μM); A8 radioligand binding, percentage inhibition ([8]; [125I]-Substance P): + (“+” indicates greater than 50% inhibition at 10 μM); A9 radioligand binding, percentage inhibition ([9]; [125I]-PYY): − (“−” indicates less than 50% inhibition at 10 μM); A10 radioligand binding, percentage inhibition ([10]; [125I]-Nociceptin): − (“−” indicates less than 50% inhibition at 10 μM); A11 radioligand binding, percentage inhibition ([11]; [125I]-Urotensin II): − (“−” indicates less than 50% inhibition at 10 μM)
5 | COC[C@H]1OC(OCc2ccc(-c3ccccc3)cc2)[C@H](NC(=O)CCCNC(=N)N)[C@@H](OCc2ccc(-c3ccccc3)cc2)[C@@H]1O (single isomer, unassigned) [compound 335] |  |  |  |  |  |  |  |  |  |  |  | + (“+” indicates greater than 50% inhibition at 10 μM) | + (“+” indicates greater than 50% inhibition at 10 μM) | + (“+” indicates greater than 50% inhibition at 10 μM) | + (“+” indicates greater than 50% inhibition at 10 μM) | − (“−” indicates less than 50% inhibition at 10 μM) | − (“−” indicates less than 50% inhibition at 10 μM) | − (“−” indicates less than 50% inhibition at 10 μM) | A1: inhibition of radioligand binding, human δ-opioid (DOP) ([1]; [3H]-Bremazocine, 10 µM): + (“+” indicates greater than 50% inhibition at 10 μM); A2: inhibition of radioligand binding, human κ-opioid (KOP) ([2]; [3H]-Diprenorphine, 10 µM): + (“+” indicates greater than 50% inhibition at 10 μM); A3: inhibition of radioligand binding, human melanocortin (MC3) ([3]; [125I]-NDP-αMSH, 10 µM): + (“+” indicates greater than 50% inhibition at 10 μM); A7: inhibition of radioligand binding, human μ-opioid (MOP) ([7]; [3H]-Naloxone, 10 µM): + (“+” indicates greater than 50% inhibition at 10 μM)
